Data published in patent US5756763A, “Pyrrolidine derivatives” (Zaidan Hojin Biseibutsu Kagaku Kenkyukai, priority 1993, dated 1998).

Legend:
[1] = system: prolyl endopeptidase in mouse brain; test: Prolyl endopeptidase inhibition activity in mouse brain after intravenous administration; type: in vivo, mouse (male ddy strain); details: 30 mg/kg i.v., 30 minutes after administration, control = 100
Method: (§1) Using 0.1 mM of benzyolxycarbonylglycylproline-β-naphthylamide as substrate and swine kidney-derived prolyl endopeptidase as enzyme, the enzyme was acted on the substrate at 37° C. for 30 minutes in 0.025 M Tris(hydroxymethyl)methane amine-hydrochloric acid (pH 7.5) solution. Fast Garnet was added to form a color and absorbance was measured at 525 nm. The inhibitory activity is expressed in terms of concentration required for 50% inhibition (IC50).
Each of the compounds of the present invention was dissolved in physiological saline or physiological saline added with a surfactant. The solution was intravenously administered to male ddy strain mice (3 in one group) at a dose of 30 mg/kg. For control, physiological saline or a surfactant alone was intravenously given to 3 mice in a similar manner.
Thirty minutes after administration, the animal was bled to death and the whole brain was excised out. Each brain was homogenized with 20-fold volume of 0.1M phosphate buffer containing 2 mM DTT and the homogenate was centrifuged at 3000 g for 20 minutes. The prolyl endopeptidase in the resulting supernatant was determined as in Experiment 1, as β-naphthylamine isolated. When the mean enzyme activity in the mouse brain for control is made 100 (β-naphthylamine value: 3.88±0.26), the residual enzyme activity was determined when the compounds of the present invention was administered.

[2] = biological target: T1, prolyl endopeptidase (Sus scrofa, UniProt P23687); test: Enzyme inhibitory action on swine kidney-derived prolyl endopeptidase (Z-Gly-Pro-β-naphthylamide substrate); type: biochemical; details: swine kidney prolyl endopeptidase, 0.1 mM substrate, 37° C., 30 minutes, pH 7.5
T1 construct: swine kidney-derived prolyl endopeptidase; from tissue; host or cells: swine kidney
T1 sequence (P23687 whole entry): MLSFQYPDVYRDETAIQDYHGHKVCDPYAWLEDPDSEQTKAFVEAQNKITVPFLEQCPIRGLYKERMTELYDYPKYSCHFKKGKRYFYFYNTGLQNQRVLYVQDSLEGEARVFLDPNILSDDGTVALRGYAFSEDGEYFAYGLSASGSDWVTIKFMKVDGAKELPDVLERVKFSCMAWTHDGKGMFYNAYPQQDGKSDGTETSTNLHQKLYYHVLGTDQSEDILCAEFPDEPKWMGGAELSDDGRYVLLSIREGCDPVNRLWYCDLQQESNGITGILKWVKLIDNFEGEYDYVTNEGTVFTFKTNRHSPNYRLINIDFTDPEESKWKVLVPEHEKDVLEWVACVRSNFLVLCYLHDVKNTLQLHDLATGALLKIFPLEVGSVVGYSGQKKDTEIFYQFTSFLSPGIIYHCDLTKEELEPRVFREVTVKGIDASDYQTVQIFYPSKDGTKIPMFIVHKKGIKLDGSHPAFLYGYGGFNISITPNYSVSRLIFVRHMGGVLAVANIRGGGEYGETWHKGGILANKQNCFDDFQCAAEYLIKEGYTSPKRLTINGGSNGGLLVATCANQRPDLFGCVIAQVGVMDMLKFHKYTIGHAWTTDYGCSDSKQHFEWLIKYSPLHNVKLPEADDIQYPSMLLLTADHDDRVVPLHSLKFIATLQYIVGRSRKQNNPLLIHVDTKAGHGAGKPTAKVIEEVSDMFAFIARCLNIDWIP
Method: as §1

Row | SMILES | Residual Enzyme Activity (%) [1] [%] | IC50 [2] [nM]
1 | O=C(NC1CCCCC1)C(=O)C1CCCN1C(=O)C(Cc1ccccc1)NC(=O)c1ccccn1 (stereo not drawn) [Example 26, N-Cyclohexyl-2-oxo-2-[2-(1-(N-(2-pyridylcarbonyl)phenylalanyl)pyrrolidinyl)]acetamide] | 5.7 | 1.78
2 | O=C(NC1CCCCC1)C(=O)C1CCCN1C(=O)c1ccc2ccccc2c1 (stereo not drawn) [Example 64, N-Cyclohexyl-2-oxo-2-[2-(1-(2-naphthoyl)pyrrolidinyl)]acetamide] | 50.5 | 21.7
3 | O=C(NC1CCCCC1)C(=O)C1CCCN1C(=O)c1ccc(CN2CCOCC2)cc1 (stereo not drawn) [Example 84, N-Cyclohexyl-2-oxo-2-[2-(1-(4-morpholinomethylbenzoyl)pyrrolidinyl)]acetamide] | 50.3 | 72.5
4 | O=C(NC1CCCCC1)C(=O)C1CCCN1C(=O)C(CC1CCCCC1)NC(=O)c1ccc2ccccc2n1 (stereo not drawn) [Example 124, N-Cyclohexyl-2-oxo-2-[2-(1-(N-(2-quinolylcarbonyl)-β-cyclohexylalanyl)pyrrolidinyl)]acetamide] |  | 3.75
5 | CC(C)(C)OC(=O)N1c2ccccc2CC1C(=O)N1CCCC1C(=O)C(=O)NC1CCCCC1 (stereo not drawn) [Example 126, N-Cyclohexyl-2-oxo-2-[2-(1-(1-t-butoxycarbonyl-2,3-dihydroindole-2-carbonyl)pyrrolidinyl)]acetamide] |  | 1.7
6 | O=C[C@@H]1CCCN1C(=O)[C@H](Cc1ccccc1)NC(=O)c1cccc(Oc2ccccc2)c1 [Reference Example 4, N-(N-(3-Phenoxybenzoyl)-L-phenylalanyl)-L-prolinal, reference compound] |  | 249
